Converted amounts (≈) assume the structure as drawn. Blank lines part the entries; values can stand above or below the compound they belong to.
Key:
[1] = Kinetic aqueous solubility (laser nephelometry); type: physicochemical; conditions: Milli-Q water with 2.5% DMSO, kinetic from dmso stock, range 250–12 μM, read-out: Aq. Sol. (aqueous kinetic solubility)
Description: Solubility experiments: The kinetic aqueous solubility of the test compounds was measured using laser nephelometry. Compounds were subject to serial dilution from 10 mM to 0.5 mM in DMSO. An aliquot was then mixed with Milli-Q H2O to obtain an aqueous dilution plate with a final concentration range of 250–12 μM, with a final DMSO concentration of 2.5 %. Triplicate aliquots were transferred to a flat-bottomed polystyrene plate which was immediately read on the NEPHELOstar (BMG Lab Technologies). The amount of laser scatter caused by insoluble particulates (relative nephelometry units, RNU) was plotted against compound concentration using a segmental regression fit, with the point of inflection being quoted as the compounds′ aqueous solubility (in μM).

PAK6 = PAK6 (Homo sapiens, UniProt Q9NQU5); assay: Kinase panel: PAK6; type: biochemical, human/mammalian; conditions: compound at 10 μM, read-out: % of activity respect of the control
PAK6, sequence (Q9NQU5 whole entry): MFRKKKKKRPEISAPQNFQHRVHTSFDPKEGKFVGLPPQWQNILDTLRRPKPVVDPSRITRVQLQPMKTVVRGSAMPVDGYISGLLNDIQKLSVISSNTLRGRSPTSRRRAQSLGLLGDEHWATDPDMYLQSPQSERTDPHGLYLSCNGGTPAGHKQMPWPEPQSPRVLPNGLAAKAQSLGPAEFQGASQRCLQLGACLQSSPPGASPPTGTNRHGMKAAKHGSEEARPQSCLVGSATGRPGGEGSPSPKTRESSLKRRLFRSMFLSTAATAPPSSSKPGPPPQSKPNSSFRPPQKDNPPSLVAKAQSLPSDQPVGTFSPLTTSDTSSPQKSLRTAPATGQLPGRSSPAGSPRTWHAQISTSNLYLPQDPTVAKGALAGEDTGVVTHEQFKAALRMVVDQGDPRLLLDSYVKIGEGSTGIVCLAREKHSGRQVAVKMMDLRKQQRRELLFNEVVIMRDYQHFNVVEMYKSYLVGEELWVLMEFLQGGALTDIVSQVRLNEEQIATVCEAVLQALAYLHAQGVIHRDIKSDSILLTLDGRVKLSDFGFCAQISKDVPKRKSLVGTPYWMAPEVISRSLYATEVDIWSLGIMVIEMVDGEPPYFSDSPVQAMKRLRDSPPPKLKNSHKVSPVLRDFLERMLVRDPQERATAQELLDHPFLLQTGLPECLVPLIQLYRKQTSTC
Description: (§1) The DDU kinase-focused compound set contains lead-like scaffolds that are designed to target protein kinases; they have kinase hinge binding motifs. Four of the 1H-imidazopyrazinones were screened against a human/mammalian kinase panel at the University of Dundee (http://www.kinase-screen.mrc.ac.uk) at a concentration of 10 μM. At the time of testing the panel contained 79 mammalian kinases selected to provide a broad coverage of the mammalian kinome (∼500 kinases in the human genome).[3] None of the compounds were active against any of the kinases at 10 μM.

CAMKKb = CAMKKb (Homo sapiens, UniProt Q96RR4); assay: Kinase panel: CAMKKb; type: biochemical, human/mammalian; conditions: compound at 10 μM, read-out: % of activity respect of the control
CAMKKb, sequence (Q96RR4 whole entry): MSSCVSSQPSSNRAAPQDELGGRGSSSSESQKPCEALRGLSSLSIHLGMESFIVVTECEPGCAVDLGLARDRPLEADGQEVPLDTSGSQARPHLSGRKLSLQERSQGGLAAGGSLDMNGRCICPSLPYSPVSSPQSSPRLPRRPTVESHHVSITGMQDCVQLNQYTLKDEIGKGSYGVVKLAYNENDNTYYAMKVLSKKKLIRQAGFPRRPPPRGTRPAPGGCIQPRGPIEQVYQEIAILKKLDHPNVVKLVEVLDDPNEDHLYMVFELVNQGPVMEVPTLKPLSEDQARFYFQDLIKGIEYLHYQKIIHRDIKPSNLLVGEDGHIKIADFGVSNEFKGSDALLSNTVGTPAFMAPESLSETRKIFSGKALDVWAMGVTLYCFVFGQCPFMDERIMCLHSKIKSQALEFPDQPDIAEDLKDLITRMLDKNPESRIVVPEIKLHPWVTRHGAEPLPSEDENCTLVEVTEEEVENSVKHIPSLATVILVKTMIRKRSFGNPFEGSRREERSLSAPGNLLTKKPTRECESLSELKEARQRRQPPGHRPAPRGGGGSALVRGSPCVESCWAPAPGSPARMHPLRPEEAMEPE
Description: as §1

PLK1 = PLK1 (Homo sapiens, UniProt P53350); assay: Kinase panel: PLK1; type: biochemical, human/mammalian; conditions: compound at 10 μM, read-out: % of activity respect of the control
PLK1, sequence (P53350 whole entry): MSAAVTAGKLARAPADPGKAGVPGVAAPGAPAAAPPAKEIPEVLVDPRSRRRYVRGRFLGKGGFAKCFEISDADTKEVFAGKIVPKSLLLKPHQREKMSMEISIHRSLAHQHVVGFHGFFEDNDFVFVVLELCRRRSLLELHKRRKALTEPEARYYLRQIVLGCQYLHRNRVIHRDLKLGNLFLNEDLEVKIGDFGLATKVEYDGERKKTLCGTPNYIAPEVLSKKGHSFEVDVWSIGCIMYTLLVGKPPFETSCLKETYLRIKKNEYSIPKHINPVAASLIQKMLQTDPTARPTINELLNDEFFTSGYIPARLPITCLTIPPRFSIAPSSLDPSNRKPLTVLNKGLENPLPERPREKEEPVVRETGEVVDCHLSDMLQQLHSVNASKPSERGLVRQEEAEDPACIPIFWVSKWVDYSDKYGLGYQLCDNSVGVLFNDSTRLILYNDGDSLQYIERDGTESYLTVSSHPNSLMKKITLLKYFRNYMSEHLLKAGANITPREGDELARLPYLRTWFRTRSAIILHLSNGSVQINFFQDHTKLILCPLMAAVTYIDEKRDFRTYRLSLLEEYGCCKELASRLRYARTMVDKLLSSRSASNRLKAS
Description: as §1

PKCa = PKCa (Homo sapiens, UniProt P17252); assay: Kinase panel: PKCa; type: biochemical, human/mammalian; conditions: compound at 10 μM, read-out: % of activity respect of the control
Description: as §1

MST2 = biological target: T1, MST2 (Homo sapiens, UniProt Q13188); assay: Kinase panel: MST2; type: biochemical, human/mammalian; conditions: compound at 10 μM, read-out: % of activity respect of the control
T1 sequence (Q13188 1-491): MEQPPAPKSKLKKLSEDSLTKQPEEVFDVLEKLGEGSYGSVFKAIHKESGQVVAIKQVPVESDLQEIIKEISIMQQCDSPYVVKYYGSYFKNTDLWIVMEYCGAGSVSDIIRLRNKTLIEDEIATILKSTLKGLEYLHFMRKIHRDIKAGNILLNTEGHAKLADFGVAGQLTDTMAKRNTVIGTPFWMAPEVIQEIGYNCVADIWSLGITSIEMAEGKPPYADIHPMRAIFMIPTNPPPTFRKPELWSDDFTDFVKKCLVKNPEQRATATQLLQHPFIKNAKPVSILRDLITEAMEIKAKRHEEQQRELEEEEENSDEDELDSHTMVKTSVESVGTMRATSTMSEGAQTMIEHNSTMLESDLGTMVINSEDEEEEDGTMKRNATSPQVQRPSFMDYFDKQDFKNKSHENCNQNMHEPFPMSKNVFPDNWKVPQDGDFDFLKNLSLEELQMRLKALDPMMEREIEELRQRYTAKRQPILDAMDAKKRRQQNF
Description: as §1

PKBa = PKBa (Homo sapiens, UniProt P31749); assay: Kinase panel: PKBa; type: biochemical, human/mammalian; conditions: compound at 10 μM, read-out: % of activity respect of the control
Description: as §1

PIM1 = PIM1 (Homo sapiens, UniProt P11309); assay: Kinase panel: PIM1; type: biochemical, human/mammalian; conditions: compound at 10 μM, read-out: % of activity respect of the control
PIM1, sequence (P11309 whole entry): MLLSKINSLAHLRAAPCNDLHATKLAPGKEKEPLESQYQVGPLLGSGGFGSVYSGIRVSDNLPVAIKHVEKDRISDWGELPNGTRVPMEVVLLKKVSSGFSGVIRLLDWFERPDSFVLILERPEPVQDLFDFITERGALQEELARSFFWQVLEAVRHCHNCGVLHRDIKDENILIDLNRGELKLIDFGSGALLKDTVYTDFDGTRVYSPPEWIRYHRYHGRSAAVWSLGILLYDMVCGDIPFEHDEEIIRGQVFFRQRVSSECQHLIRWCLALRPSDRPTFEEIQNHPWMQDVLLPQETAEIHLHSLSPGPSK
Description: as §1

JNK1 = JNK1 (Homo sapiens, UniProt P45983); assay: Kinase panel: JNK1; type: biochemical, human/mammalian; conditions: compound at 10 μM, read-out: % of activity respect of the control
Description: as §1

PDK1 = biological target: T2, PDK1 (Homo sapiens, UniProt O15530); assay: Kinase panel: PDK1; type: biochemical, human/mammalian; conditions: compound at 10 μM, read-out: % of activity respect of the control
T2 sequence (O15530 1-556): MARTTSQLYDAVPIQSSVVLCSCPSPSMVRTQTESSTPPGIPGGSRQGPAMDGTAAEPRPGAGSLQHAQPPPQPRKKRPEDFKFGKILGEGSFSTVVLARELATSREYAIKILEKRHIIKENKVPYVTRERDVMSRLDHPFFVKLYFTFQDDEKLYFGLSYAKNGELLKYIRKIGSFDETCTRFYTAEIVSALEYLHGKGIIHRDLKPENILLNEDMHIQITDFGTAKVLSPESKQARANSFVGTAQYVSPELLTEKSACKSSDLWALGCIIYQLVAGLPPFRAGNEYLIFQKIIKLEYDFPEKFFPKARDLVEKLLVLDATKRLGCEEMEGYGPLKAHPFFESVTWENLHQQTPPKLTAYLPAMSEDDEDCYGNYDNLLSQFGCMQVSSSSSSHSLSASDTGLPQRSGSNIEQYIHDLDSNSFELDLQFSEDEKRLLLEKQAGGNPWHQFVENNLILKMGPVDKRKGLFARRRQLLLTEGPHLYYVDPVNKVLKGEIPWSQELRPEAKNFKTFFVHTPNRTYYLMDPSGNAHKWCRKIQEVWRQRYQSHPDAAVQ
Description: as §1

CK2 = CK2 (Homo sapiens, UniProt P68400); assay: Kinase panel: CK2; type: biochemical, human/mammalian; conditions: compound at 10 μM, read-out: % of activity respect of the control
CK2, sequence (P68400 whole entry): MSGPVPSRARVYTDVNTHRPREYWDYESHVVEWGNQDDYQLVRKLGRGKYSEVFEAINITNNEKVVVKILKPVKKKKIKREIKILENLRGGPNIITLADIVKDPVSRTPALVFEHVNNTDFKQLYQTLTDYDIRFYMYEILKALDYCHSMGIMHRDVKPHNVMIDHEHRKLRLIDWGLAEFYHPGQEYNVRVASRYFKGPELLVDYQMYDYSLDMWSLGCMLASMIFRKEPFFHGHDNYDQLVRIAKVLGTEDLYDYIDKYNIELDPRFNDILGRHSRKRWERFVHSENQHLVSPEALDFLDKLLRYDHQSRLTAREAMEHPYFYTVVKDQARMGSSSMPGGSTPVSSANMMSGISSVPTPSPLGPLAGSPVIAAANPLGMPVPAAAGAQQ
Description: as §1

CHK2 = CHK2 (Homo sapiens, UniProt O96017); assay: Kinase panel: CHK2; type: biochemical, human/mammalian; conditions: compound at 10 μM, read-out: % of activity respect of the control
CHK2, sequence (O96017 whole entry): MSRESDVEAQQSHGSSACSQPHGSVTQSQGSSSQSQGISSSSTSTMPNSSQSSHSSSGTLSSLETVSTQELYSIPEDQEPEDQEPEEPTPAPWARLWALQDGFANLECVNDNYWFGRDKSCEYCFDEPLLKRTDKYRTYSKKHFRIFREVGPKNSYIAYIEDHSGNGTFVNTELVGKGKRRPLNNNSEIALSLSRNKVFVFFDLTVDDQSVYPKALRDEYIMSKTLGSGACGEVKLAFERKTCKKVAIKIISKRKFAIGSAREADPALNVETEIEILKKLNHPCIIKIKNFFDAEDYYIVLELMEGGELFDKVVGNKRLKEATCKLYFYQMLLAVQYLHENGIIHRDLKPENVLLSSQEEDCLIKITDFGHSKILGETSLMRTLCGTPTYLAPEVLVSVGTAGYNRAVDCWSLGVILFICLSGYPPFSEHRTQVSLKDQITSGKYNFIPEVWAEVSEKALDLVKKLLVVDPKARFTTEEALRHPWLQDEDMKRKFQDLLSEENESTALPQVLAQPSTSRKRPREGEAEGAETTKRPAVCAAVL
Description: as §1

CAMK1 = CAMK1 (Homo sapiens, UniProt Q14012); assay: Kinase panel: CAMK1; type: biochemical, human/mammalian; conditions: compound at 10 μM, read-out: % of activity respect of the control
Description: as §1

PKBb = PKBb (Homo sapiens, UniProt P31751); assay: Kinase panel: PKBb; type: biochemical, human/mammalian; conditions: compound at 10 μM, read-out: % of activity respect of the control
PKBb, sequence (P31751 whole entry): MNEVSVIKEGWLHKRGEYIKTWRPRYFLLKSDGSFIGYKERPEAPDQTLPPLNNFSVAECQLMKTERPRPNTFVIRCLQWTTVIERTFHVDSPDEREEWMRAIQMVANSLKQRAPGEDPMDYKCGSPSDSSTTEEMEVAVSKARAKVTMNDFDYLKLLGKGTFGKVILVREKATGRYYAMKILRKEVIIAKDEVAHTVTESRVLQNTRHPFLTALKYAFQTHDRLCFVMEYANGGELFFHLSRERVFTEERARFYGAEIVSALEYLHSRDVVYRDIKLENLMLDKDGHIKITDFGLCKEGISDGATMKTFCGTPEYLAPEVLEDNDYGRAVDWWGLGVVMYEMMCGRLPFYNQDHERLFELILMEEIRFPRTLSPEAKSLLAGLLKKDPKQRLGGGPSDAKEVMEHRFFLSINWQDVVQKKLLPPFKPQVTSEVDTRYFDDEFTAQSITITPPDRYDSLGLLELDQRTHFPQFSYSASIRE
Description: as §1

MARK3 = MARK3 (Homo sapiens, UniProt P27448); assay: Kinase panel: MARK3; type: biochemical, human/mammalian; conditions: compound at 10 μM, read-out: % of activity respect of the control
Description: as §1

S6K1 = S6K1 (Homo sapiens, UniProt P23443); assay: Kinase panel: S6K1; type: biochemical, human/mammalian; conditions: compound at 10 μM, read-out: % of activity respect of the control
S6K1, sequence (P23443 whole entry): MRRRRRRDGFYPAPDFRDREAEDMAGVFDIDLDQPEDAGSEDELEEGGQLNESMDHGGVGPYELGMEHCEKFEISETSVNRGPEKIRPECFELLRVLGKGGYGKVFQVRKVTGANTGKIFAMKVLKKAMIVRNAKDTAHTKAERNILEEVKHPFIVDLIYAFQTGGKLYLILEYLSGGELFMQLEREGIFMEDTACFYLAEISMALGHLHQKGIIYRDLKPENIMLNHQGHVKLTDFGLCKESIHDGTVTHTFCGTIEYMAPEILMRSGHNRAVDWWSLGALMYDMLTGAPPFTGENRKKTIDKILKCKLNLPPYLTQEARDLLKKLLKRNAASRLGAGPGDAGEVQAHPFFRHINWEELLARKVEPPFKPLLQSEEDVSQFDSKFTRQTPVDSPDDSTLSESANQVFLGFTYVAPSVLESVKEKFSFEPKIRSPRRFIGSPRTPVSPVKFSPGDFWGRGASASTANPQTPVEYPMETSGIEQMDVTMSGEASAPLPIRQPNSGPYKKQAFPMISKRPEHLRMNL
Description: as §1

SMILES: CC(c1ccccc1)n1c(=O)[nH]c2ncc(-c3ccc(F)cc3)nc21 (stereo not shown) [Compound 1]
solubility kinetic [1]: < 12 µM
remaining activity at 10 µM (PAK6): 89%
remaining activity at 10 µM (CAMKKb): 101%
remaining activity at 10 µM (PLK1): 111%
remaining activity at 10 µM (PKCa): 101%
remaining activity at 10 µM (MST2): 86%
remaining activity at 10 µM (PKBa): 99%
remaining activity at 10 µM (PIM1): 80%
remaining activity at 10 µM (JNK1): 95%
remaining activity at 10 µM (PDK1): 99%
remaining activity at 10 µM (CK2): 107%
remaining activity at 10 µM (CHK2): 97%
remaining activity at 10 µM (CAMK1): 87%
remaining activity at 10 µM (PKBb): 117%
remaining activity at 10 µM (MARK3): 110%
remaining activity at 10 µM (S6K1): 81%

SMILES: O=c1[nH]c2ncc(-c3ccc(F)cc3)nc2n1CC1CC1 [Compound 10]
remaining activity at 10 µM (PAK6): 98%
remaining activity at 10 µM (CAMKKb): 98%
remaining activity at 10 µM (PLK1): 102%
remaining activity at 10 µM (PKCa): 106%
remaining activity at 10 µM (MST2): 92%
remaining activity at 10 µM (PKBa): 96%
remaining activity at 10 µM (PIM1): 79%
remaining activity at 10 µM (JNK1): 100%
remaining activity at 10 µM (PDK1): 96%
remaining activity at 10 µM (CK2): 105%
remaining activity at 10 µM (CHK2): 97%
remaining activity at 10 µM (CAMK1): 83%
remaining activity at 10 µM (PKBb): 120%
remaining activity at 10 µM (MARK3): 97%
remaining activity at 10 µM (S6K1): 92%

SMILES: O=c1[nH]c2ncc(-c3ccc(F)cc3)nc2n1C1CCCCC1 [Compound 12, 1-Cyclohexyl-6-(4-fluorophenyl)-1H-imidazo[4,5-b]pyrazin-2(3H)-one]
solubility kinetic [1]: 55 µM (≈ 17.2 µg/mL)
remaining activity at 10 µM (PAK6): 106%
remaining activity at 10 µM (CAMKKb): 104%
remaining activity at 10 µM (PLK1): 117%
remaining activity at 10 µM (PKCa): 94%
remaining activity at 10 µM (MST2): 94%
remaining activity at 10 µM (PKBa): 102%
remaining activity at 10 µM (PIM1): 82%
remaining activity at 10 µM (JNK1): 95%
remaining activity at 10 µM (PDK1): 98%
remaining activity at 10 µM (CK2): 111%
remaining activity at 10 µM (CHK2): 96%
remaining activity at 10 µM (CAMK1): 88%
remaining activity at 10 µM (PKBb): 106%
remaining activity at 10 µM (MARK3): 98%
remaining activity at 10 µM (S6K1): 97%

SMILES: C[C@H](c1ccccc1)n1c(=O)[nH]c2ncc(-c3ccccc3)nc21 [Compound 14, (R)-6-Phenyl-1-(1-phenylethyl)-1H-imidazo[4,5-b]pyrazin-2(3H)-one]
solubility kinetic [1]: < 12 µM
remaining activity at 10 µM (PAK6): 88%
remaining activity at 10 µM (CAMKKb): 86%
remaining activity at 10 µM (PLK1): 104%
remaining activity at 10 µM (PKCa): 98%
remaining activity at 10 µM (MST2): 78%
remaining activity at 10 µM (PKBa): 89%
remaining activity at 10 µM (PIM1): 72%
remaining activity at 10 µM (JNK1): 97%
remaining activity at 10 µM (PDK1): 91%
remaining activity at 10 µM (CK2): 105%
remaining activity at 10 µM (CHK2): 93%
remaining activity at 10 µM (CAMK1): 72%
remaining activity at 10 µM (PKBb): 100%
remaining activity at 10 µM (MARK3): 100%
remaining activity at 10 µM (S6K1): 65%

solubility kinetic [1]: > 250 µM
SMILES: O=c1[nH]c2ncc(-c3ccccc3CO)nc2n1C1CCCCC1 [Compound 28]
